# Test results reported in US12110289B2, “Heterocyclic compounds, preparation methods and uses thereof” (InventisBio Co., Ltd., priority 2020, dated 2024).
# Test system: Lung cancer cell line NCI-H358 containing KRas G12C mutation
# Test: Assay for cell proliferation (Cell-titer Glo, 5 days)
# Assay type: cell-based, human
# Details: Homo sapiens, NCI-H358, 120 h, NCI-H358, 5 days, Cell-titer Glo; read-out: IC50 (nM), Inhibition of NCI-H358 Cell Proliferation
# Description: One hundred fifty microliter (150 μL) of media containing 2000 cells per well were seeded into each well of a 96-well culture plate and left to attach overnight in a 37° C. incubator with 5% CO2. Diluted compounds of 0.75 μL for each well were added by liquid handler at a final concentration of 0.5% DMSO. Cells were treated for 5 days in the incubator. Cell-titer Glo (CTG) kit (Promega) was used to assess cell proliferation. Of note, 120 μL of CTG reagent was added to each well and incubated at RT for 10 minutes.
row,SMILES,IC50 [nM]
1,"C=CC(=O)N1C[C@H](C)N(c2nc(=O)n(-c3c(F)cc4c(ncn4C)c3C3CC3)c3nc(-c4c(N)cccc4F)c(F)cc23)C[C@H]1C (atropisomer, axis not shown) [Compound 179]",386
2,"C=CC(=O)N1CCN(c2nc(=O)n(-c3c(C)nc4c(ncn4C)c3C(C)C)c3nc(-c4c(O)cccc4F)c(F)cc23)[C@@H](C)C1 (single isomer, unassigned) [Compound 163]",44.2

# Same assay, conditions: NCI-H358, 5 days, Cell-titer Glo; read-out: IC50 (nM), Inhibition of NCI-H358 Cell Proliferation
row,SMILES,IC50 [nM]
1,"C=CC(=O)N1CCN(c2nc(=O)n(-c3c(C)cc4c(ncn4C)c3C(C)C)c3nc(-c4c(N)cccc4F)c(Cl)cc23)[C@@H](C)C1 (atropisomer, axis not shown) [Compound 151]",16.2
2,"C=CC(=O)N1CCN(c2nc(=O)n(-c3c(C)cc4c(ncn4C)c3C(C)C)c3nc(-c4ccccc4F)c(Cl)cc23)[C@@H](C)C1 (single isomer, unassigned) [Compound 141]",38
3,"C=CC(=O)N1CCN(c2nc(=O)n(-c3c(C)cc4c(ncn4C)c3C(C)C)c3nc(-c4ccccc4F)c(Cl)cc23)[C@@H](C)C1 (single isomer, unassigned) [Compound 142]",2.2
4,"C=CC(=O)N1CCN(c2nc(=O)n(-c3c(F)cc4c(ncn4C)c3C(C)C)c3nc(-c4c(N)cccc4F)c(F)cc23)[C@@H](C)C1 (single isomer, unassigned) [Compound 143]",1300
5,"C=CC(=O)N1CCN(c2nc(=O)n(-c3c(F)cc4c(ncn4C)c3C(C)C)c3nc(-c4c(N)cccc4F)c(F)cc23)[C@@H](C)C1 (single isomer, unassigned) [Compound 144]",2.5
6,"C=CC(=O)N1CCN(c2nc(=O)n(-c3c(C)cc4c(ncn4C)c3C(C)C)c3nc(-c4c(N)cccc4F)c(F)cc23)[C@@H](C)C1 (single isomer, unassigned) [Compound 147]",2.7
7,"C=CC(=O)N1CCN(c2nc(=O)n(-c3c(C)cc4c(ncn4C)c3C(C)C)c3nc(-c4c(N)cccc4F)c(F)cc23)[C@@H](C)C1 (single isomer, unassigned) [Compound 148]",78.6
8,"C=CC(=O)N1C[C@H](C)N(c2nc(=O)n(-c3c(C)cc4c(ncn4C)c3C(C)C)c3nc(-c4c(O)cccc4F)c(Cl)cc23)C[C@H]1C (single isomer, unassigned) [Compound 149]",12.8
9,"C=CC(=O)N1C[C@H](C)N(c2nc(=O)n(-c3c(C)cc4c(ncn4C)c3C(C)C)c3nc(-c4c(O)cccc4F)c(Cl)cc23)C[C@H]1C (single isomer, unassigned) [Compound 150]",1.1
10,"C=CC(=O)N1C[C@H](C)N(c2nc(=O)n(-c3c(C)cc4c(ncn4C)c3C(C)C)c3nc(-c4c(N)cccc4F)c(F)cc23)C[C@H]1C (single isomer, unassigned) [Compound 153]",172
11,"C=CC(=O)N1C[C@H](C)N(c2nc(=O)n(-c3c(C)cc4c(ncn4C)c3C(C)C)c3nc(-c4c(N)cccc4F)c(F)cc23)C[C@H]1C (single isomer, unassigned) [Compound 154]",1.4
12,"C=CC(=O)N1CCN(c2nc(=O)n(-c3c(C)cc4c(ncn4C)c3C(C)C)c3nc(-c4c(O)cccc4F)c(F)cc23)[C@@H](C)C1 (single isomer, unassigned) [Compound 155]",60
13,"C=CC(=O)N1CCN(c2nc(=O)n(-c3c(C)cc4c(ncn4C)c3C(C)C)c3nc(-c4c(O)cccc4F)c(F)cc23)[C@@H](C)C1 (single isomer, unassigned) [Compound 156]",6.9
14,"C=CC(=O)N1C[C@H](C)N(c2nc(=O)n(-c3c(C)cc4c(ncn4C)c3C(C)C)c3nc(-c4ccccc4F)c(Cl)cc23)C[C@H]1C (single isomer, unassigned) [Compound 159]",64.2
15,"C=CC(=O)N1C[C@H](C)N(c2nc(=O)n(-c3c(C)cc4c(ncn4C)c3C(C)C)c3nc(-c4ccccc4F)c(Cl)cc23)C[C@H]1C (single isomer, unassigned) [Compound 160]",1.3
16,"C=CC(=O)N1C[C@H](C)N(c2nc(=O)n(-c3c(C)cc4c(ncn4C)c3C(C)C)c3nc(-c4c(N)cccc4F)c(Cl)cc23)C[C@H]1C (single isomer, unassigned) [Compound 161]",32.4
17,"C=CC(=O)N1C[C@H](C)N(c2nc(=O)n(-c3c(C)cc4c(ncn4C)c3C(C)C)c3nc(-c4c(N)cccc4F)c(Cl)cc23)C[C@H]1C (single isomer, unassigned) [Compound 162]",0.5
18,"C=CC(=O)N1C[C@H](C)N(c2nc(=O)n(-c3c(C)nc4c(ncn4C)c3C(C)C)c3nc(-c4c(N)cccc4F)c(F)cc23)C[C@H]1C (single isomer, unassigned) [Compound 164]",> 1000
19,"C=CC(=O)N1C[C@H](C)N(c2nc(=O)n(-c3c(C)nc4c(ncn4C)c3C(C)C)c3nc(-c4c(N)cccc4F)c(F)cc23)C[C@H]1C (single isomer, unassigned) [Compound 165]",157
20,"C=CC(=O)N1C[C@H](C)N(c2nc(=O)n(-c3c(C)nc4c(ncn4C)c3C(C)C)c3nc(-c4ccccc4F)c(Cl)cc23)C[C@H]1C (single isomer, unassigned) [Compound 167]",0.8
21,"C=CC(=O)N1C[C@H](C)N(c2nc(=O)n(-c3c(C)nc4c(ncn4C)c3C(C)C)c3nc(-c4ccccc4F)c(Cl)cc23)C[C@H]1C (single isomer, unassigned) [Compound 168]",20.3
22,"C=CC(=O)N1C[C@H](C)N(c2nc(=O)n(-c3c(F)cc4c(ncn4C)c3C(C)C)c3nc(-c4ccccc4F)c(Cl)cc23)C[C@H]1C (single isomer, unassigned) [Compound 169]",119
23,"C=CC(=O)N1C[C@H](C)N(c2nc(=O)n(-c3c(F)cc4c(ncn4C)c3C(C)C)c3nc(-c4ccccc4F)c(Cl)cc23)C[C@H]1C (single isomer, unassigned) [Compound 170]",1
24,"C=CC(=O)N1C[C@H](C)N(c2nc(=O)n(-c3c(C)nc4c(ncn4C)c3C(C)C)c3nc(-c4c(O)cccc4F)c(Cl)cc23)C[C@H]1C (single isomer, unassigned) [Compound 171]",15.6
25,"C=CC(=O)N1C[C@H](C)N(c2nc(=O)n(-c3c(C)nc4c(ncn4C)c3C(C)C)c3nc(-c4c(O)cccc4F)c(Cl)cc23)C[C@H]1C (single isomer, unassigned) [Compound 172]",1.2
26,"C=CC(=O)N1C[C@H](C)N(c2nc(=O)n(-c3c(F)cc4c(ncn4C)c3C(C)C)c3nc(-c4c(N)cccc4F)c(Cl)cc23)C[C@H]1C (single isomer, unassigned) [Compound 173]",23.5
27,"C=CC(=O)N1C[C@H](C)N(c2nc(=O)n(-c3c(F)cc4c(ncn4C)c3C(C)C)c3nc(-c4c(N)cccc4F)c(Cl)cc23)C[C@H]1C (single isomer, unassigned) [Compound 174]",0.2
28,"C=CC(=O)N1C[C@H](C)N(c2nc(=O)n(-c3c(C)nc4c(ncn4C)c3C(C)C)c3nc(-c4c(N)cccc4F)c(Cl)cc23)C[C@H]1C (single isomer, unassigned) [Compound 175]",16.1
29,"C=CC(=O)N1C[C@H](C)N(c2nc(=O)n(-c3c(C)nc4c(ncn4C)c3C(C)C)c3nc(-c4c(N)cccc4F)c(Cl)cc23)C[C@H]1C (single isomer, unassigned) [Compound 176]",0.5
30,"C=CC(=O)N1C[C@H](C)N(c2nc(=O)n(-c3c(F)cc4c(ncn4C)c3C3CC3)c3nc(-c4c(N)cccc4F)c(Cl)cc23)C[C@H]1C (single isomer, unassigned) [Compound 177]",73.7
